Laboratory results taken from publication PMC2119975 (The Journal of Cell Biology, 1994).

Assays:
[1] = system: HT1080 human fibrosarcoma cells; experiment: Cell adhesion assay, HT1080 cells; type: cell-based; settings: Fig. 7 B; coating and inhibitor 100 μM; EDTA 2 mM; cells preincubated
[2] = system: type II alveolar cells; experiment: Alveolar inhibition studies on gelled BMS; type: cell-based, rat; settings: Fig. 6; cells preincubated with peptide, up to 700 μM; day five; n = 9

O=C(O)CN(CCN(CC(=O)O)CC(=O)O)CC(=O)O [EDTA]
Inhibition of HT1080 cell adhesion to SN-peptide [1]: inhibited

FGNMGS
Effect of tryptic peptides of SN-peptide on alveolar formation [2]: minimal

WHSIYITR
Effect of tryptic peptides of SN-peptide on alveolar formation [2]: partial
